The conditions of data set [1]: cited from earlier work; for absorption of the oral intake / oral dose: from food or intestine.
Data set [2] has as its system airway obstruction in a patient with COPD. The data set is described as follows: Administration of iodine on activated charcoal to a patient with COPD (spirometric evaluation and symptoms). It counts as in vivo, human. Particulars: oral intake for a few days, subjective observation.

As for `[CH3][Hg][Cl]` [Methylmercury], in data set [1] (in vivo), the “half time in whole body” value is listed as “around 70 days”. The “absorption of the oral intake / oral dose” value in data set [1] was “about 95%”.
As for `II` [elemental iodine], the “bronchorelaxing effect / relief of airway obstruction” value in data set [2] was “no distinct bronchorelaxing effect was observed”.
Take `[Cl][Hg][Cl]` [mercuric chloride]: in data set [1], the “absorption of the oral intake / oral dose” value is given as “about 7%”.

The record behind these values is patent US20100272814A1, “METHOD AND MEANS FOR PRODUCING BRONCHORELAXATION” (priority 2007, published 2010).
